Entries after “also recorded” stand apart in the source; their conditions may differ. Like-named read-outs stand apart in the source and are kept apart here.
How the values were obtained:
[1] = system: SCHH; assay: Feasibility study: BA toxicity potency, Ambrisentan vs Sitaxsentan; format: cell-based, human; settings: 2-200 uM test compound
Description: Generally, the presently disclosed methods can in some embodiments comprise culturing SCHH with a concentration range of a bile acid (e.g. DCA), or bile acid pool to identify the toxicity profile of the bile acid (such as by measurement of ATP and/or LDH; dotted line in FIGS. 7 and 8). In a parallel study, SCHH can be exposed to a concentration range of DCA or combination of bile acids in the presence of a potential cholestatic hepatotoxicant.

[2] = cited from earlier work
[3] = cited from earlier work; for clinical toxicity: clinic; for ALT elevations≥3× upper limit normal: large clinical trials
[4] = target: T1, FXR (Homo sapiens, UniProt Q96RI1); assay: FXR antagonism: OSTβ mRNA induction in SCHH co-treated with CDCA and CsA; format: cell-based
T1 construct: endogenous in cells; host or cells: SCHH (sandwich-cultured hepatocytes from donors)
T1 sequence (Q96RI1 1-486): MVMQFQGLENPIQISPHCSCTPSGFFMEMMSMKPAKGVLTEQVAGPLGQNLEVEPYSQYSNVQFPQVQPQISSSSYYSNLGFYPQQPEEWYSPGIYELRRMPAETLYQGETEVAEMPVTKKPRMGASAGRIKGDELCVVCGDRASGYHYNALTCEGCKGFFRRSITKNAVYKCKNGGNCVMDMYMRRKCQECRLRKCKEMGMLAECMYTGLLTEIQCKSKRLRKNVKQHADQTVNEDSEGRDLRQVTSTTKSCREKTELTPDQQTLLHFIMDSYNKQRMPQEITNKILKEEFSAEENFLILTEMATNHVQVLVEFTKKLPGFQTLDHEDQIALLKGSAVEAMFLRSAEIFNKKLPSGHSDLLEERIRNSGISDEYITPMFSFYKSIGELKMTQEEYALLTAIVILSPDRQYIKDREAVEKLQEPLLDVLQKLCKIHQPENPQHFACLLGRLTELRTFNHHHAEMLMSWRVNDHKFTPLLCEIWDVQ
Description: Alternatively, the reduction of OSTβ mRNA content may be explained by cytotoxicity under the conditions evaluated.

[5] = system: SCHH; assay: Bile acids at increasing concentrations in SCHH over 24 hours (ATP, LDH); format: cell-based, human; settings: 24 hr exposure
Procedure: Bile acids GCA, GCDCA and GDCA were evaluated at increasing concentrations in SCHH over 24 hours. ATP (FIG. 9) and LDH (FIG. 10) content were measured.

[6] = system: sandwich-cultured human hepatocytes; assay: Bile acid pool toxicity profile shift in SCHH, ApoTox-Glo Triplex Assay; format: cell-based; settings: 5 mM and 11 mM glucose
Procedure: Utilizing similar methodology from the previous sections, hepatotoxicity was evaluated with ApoTox-Glo™ Triplex Assay.
The effects of the test compounds were evaluated in the presence of the individual bile acids and in the presence of a bile acid pool. The effects were compared to bile acid treatment alone. DMSO treatment alone was used as a comparator for hepatotoxicity. Hepatotoxicity was evaluated with ApoTox-Glo™ Triplex Assay, which assesses viability, cytotoxicity and apoptosis.
A bile acid mixture was evaluated, and was composed of 4 different bile acids maintained at a physiological relevant ratio of each bile acid. […] Individual bile acids were dosed using the concentration they represent in the mixture.
A treatment group without free fatty acids was used as a control. Hepatotoxicity was evaluated with ApoTox-Glo™ Triplex Assay which assessed viability, cytotoxicity and apoptosis.

[7] = target: T2, NTCP (Homo sapiens, UniProt Q14973); assay: In vitro assays of NTCP inhibition
T2 sequence (Q14973 1-349): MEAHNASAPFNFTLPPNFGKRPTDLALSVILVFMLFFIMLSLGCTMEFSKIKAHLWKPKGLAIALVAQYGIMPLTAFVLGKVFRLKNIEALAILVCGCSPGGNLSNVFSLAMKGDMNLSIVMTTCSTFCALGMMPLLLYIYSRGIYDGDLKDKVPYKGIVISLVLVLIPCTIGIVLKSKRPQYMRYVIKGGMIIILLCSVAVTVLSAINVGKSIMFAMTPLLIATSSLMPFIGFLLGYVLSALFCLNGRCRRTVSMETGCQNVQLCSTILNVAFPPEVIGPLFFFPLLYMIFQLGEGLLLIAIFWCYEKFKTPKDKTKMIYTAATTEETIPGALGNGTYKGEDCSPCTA

[8] = target: BSEP (Homo sapiens, UniProt O95342); assay: In vitro assay of BSEP effect
BSEP, sequence (O95342 whole entry, species assumed): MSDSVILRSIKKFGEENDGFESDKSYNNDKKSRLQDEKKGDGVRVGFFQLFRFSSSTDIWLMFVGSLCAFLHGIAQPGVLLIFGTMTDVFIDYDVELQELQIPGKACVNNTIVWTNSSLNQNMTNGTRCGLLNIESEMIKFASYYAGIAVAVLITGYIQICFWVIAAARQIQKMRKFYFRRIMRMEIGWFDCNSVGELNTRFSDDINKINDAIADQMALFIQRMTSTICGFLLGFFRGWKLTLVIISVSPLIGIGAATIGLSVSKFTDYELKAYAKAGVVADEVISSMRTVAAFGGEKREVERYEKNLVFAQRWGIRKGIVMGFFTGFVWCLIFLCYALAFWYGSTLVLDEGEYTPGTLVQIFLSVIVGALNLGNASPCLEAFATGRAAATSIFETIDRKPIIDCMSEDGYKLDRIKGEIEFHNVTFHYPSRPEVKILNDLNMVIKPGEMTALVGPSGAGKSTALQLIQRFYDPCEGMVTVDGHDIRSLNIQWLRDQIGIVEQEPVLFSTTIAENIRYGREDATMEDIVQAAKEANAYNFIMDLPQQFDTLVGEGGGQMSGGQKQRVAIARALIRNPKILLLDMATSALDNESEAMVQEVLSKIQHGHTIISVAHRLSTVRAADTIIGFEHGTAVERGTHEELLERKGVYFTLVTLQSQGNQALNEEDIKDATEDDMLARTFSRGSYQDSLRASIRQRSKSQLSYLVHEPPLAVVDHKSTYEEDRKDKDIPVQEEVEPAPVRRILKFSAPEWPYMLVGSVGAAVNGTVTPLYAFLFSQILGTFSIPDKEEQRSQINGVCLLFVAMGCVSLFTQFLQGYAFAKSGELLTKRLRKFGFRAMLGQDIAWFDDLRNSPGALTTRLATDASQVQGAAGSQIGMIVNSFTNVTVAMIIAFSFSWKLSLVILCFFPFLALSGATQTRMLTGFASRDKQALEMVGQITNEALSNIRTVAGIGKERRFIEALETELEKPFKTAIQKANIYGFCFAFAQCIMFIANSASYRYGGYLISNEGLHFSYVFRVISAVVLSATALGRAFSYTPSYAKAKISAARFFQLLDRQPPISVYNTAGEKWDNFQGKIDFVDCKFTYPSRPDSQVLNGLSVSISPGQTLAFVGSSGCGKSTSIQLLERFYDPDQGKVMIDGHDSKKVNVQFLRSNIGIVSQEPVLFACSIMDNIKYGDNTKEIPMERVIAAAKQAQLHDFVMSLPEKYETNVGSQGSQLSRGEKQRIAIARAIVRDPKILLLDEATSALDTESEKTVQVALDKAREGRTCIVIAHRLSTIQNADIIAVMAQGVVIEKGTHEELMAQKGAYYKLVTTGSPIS

[9] = system: SCHH; assay: Cholestasis hepatotoxicity screening assay in SCHH (LDH leakage, ATP content), standard vs sensitization medium; format: cell-based; settings: human, 24 h, 100 μM
Description: As discussed above, hepatocytes become susceptible to bile acid toxicity (e.g. cholestatic hepatotoxicity) when drug exposure inhibits bile acid efflux routes (e.g. BSEP and/or MRP3/4) and 1) prevents (antagonize) FXR from sensing the rising intracellular concentrations of bile acids; or 2) inhibits bile acid efflux through OSTα/β; or 3) a combination of both. […] Briefly, hepatocytes were established in a sandwich-cultured configuration for four days. […] Drug exposures ranged from about 8× to about 16× Cmax to account for concentrating effect that can occur in the portal vein following oral administration of test compounds. Following 24 hours, LDH leakage and ATP content was evaluated utilizing commercially available assays.
The sensitization medium included free fatty acids and a physiological mixture of primary and secondary bile acids, described above (GCDCA, GCA, DCA, and GDCA) at an adequate concentration (250 μM) that minimized toxicity but challenged the hepatocytes bile acid homeostasis mechanism.

[10] = conditions used to examine FXR antagonism

COC(c1ccccc1)(c1ccccc1)[C@H](Oc1nc(C)cc(C)n1)C(=O)O [Ambrisentan]
BA toxicity potency [1]: No change in BA toxicity potency
Cmax ([2]; in vivo): 3000 nM
clinical toxicity [3]: Well tolerated; no toxicity

COc1cccc(Cn2cc(C(=O)Nc3ccc(C)c(S(=O)(=O)N4CCOCC4)c3)c(-c3ccc(C)cc3)n2)c1 [DY268]
induction of OSTβ mRNA content ([4]; SCHH co-treated with CDCA and CsA, troglitazone 75-100 μM): A similar effect was observed

C[C@H](CCC(=O)NCC(=O)O)[C@H]1CC[C@H]2[C@@H]3[C@H](O)C[C@@H]4C[C@H](O)CC[C@]4(C)[C@H]3C[C@H](O)[C@]12C [GCA]
cytotoxicity of bile acid ([5]; increasing concentrations, ATP and LDH): not cytotoxic

C[C@H](CCC(=O)NCC(=O)O)[C@H]1CC[C@H]2[C@@H]3[C@H](O)C[C@@H]4C[C@H](O)CC[C@]4(C)[C@H]3CC[C@]12C [GCDCA]
relative toxicity in the ATP assay [5]: equaled GDCA
relative toxicity in the LDH assay [5]: GDCA was greater than GCDCA

C[C@H](CCC(=O)NCC(=O)O)[C@H]1CC[C@H]2[C@@H]3CC[C@@H]4C[C@H](O)CC[C@]4(C)[C@H]3C[C@H](O)[C@]12C [GDCA]
relative toxicity in the ATP assay [5]: GCDCA equaled GDCA
relative toxicity in the LDH assay [5]: greater than GCDCA

Cc1cc2c(cc1CC(=O)c1sccc1S(=O)(=O)Nc1onc(C)c1Cl)OCO2 [Sitaxsentan]
effect on hepatotoxicity of the bile acid pool [6]: did not alter the hepatotoxicity of the bile acid pool
BA toxicity potency [1]: Decreased BA toxicity potency
NTCP effect [7]: potent/efficacious NTCP inhibitor
BSEP effect [8]: no BSEP effect
Cmax ([2]; in vivo): 23500 nM
clinical toxicity [3]: Toxicity in clinic after 5 months; liver likely not primary site of toxicity; also recorded: No toxicity @ 3 months

CCc1ccc(CCOc2ccc(CC3SC(=O)NC3=O)cc2)nc1 (stereo not shown) [pioglitazone]
Cmax ([2]; Dawson et al. 2012): 2900 nM
ALT elevations≥3× upper limit normal [3]: not different from placebo recipients

CN(CCOc1ccc(CC2SC(=O)NC2=O)cc1)c1ccccn1 (stereo not shown) [rosiglitazone]
Cmax ([2]; Dawson et al. 2012): 1000 nM
ALT elevations≥3× upper limit normal [3]: not different from placebo recipients

Cc1c(C)c2c(c(C)c1O)CCC(C)(COc1ccc(CC3SC(=O)NC3=O)cc1)O2 (stereo not shown) [troglitazone]
ATP content [9]: 0.9 % of control
LDH leakage [9]: 863 % of control
LDH secretion [9]: 490 % of control
loss of ATP content [9]: > 99 % of control
ATP content [4, 10]: no significant decreases of ATP content
LDH leakage [4, 10]: no significant decreases of ATP content or increases of LDH leakage

From patent US20190257817A1, “METHODS AND SYSTEMS FOR SCREENING CANDIDATE COMPOUNDS FOR THEIR POTENTIAL TO CAUSE SYSTEMIC OR HEPATIC TOXICITY” (Qualyst Transporter Solutions, LLC, priority 2016, published 2019)
